Values of other authors as cited in paper PMC11575912 (Journal of Clinical Oncology, 2024).

Tests used:
[1] = test system: p110α over the β, δ, and γ isoforms; settings: biochemical assays
[2] = once daily
[3] = test system: CYP; settings: in vitro or in the human mass balance study; ref unpublished data on file

For C[C@H](Nc1ccc2c(c1)OCCn1cc(N3C(=O)OC[C@H]3C(F)F)nc1-2)C(N)=O [inavolisib], the “Selectivity for p110α over the β, δ, and γ isoforms” value [1] is given as over 300 fold, the “Single-agent maximum tolerable dose” value [2] is given as 9 mg and the CYP-mediated metabolism [3] is given as “did not undergo extensive CYP-mediated metabolism”.
